According to patent publication US20240207427A1, “SELECTIVE DRUG RELEASE FROM INTERNALIZED CONJUGATES OF BIOLOGICALLY ACTIVE COMPOUNDS” (priority 2021, published 2024):
Where two headings read alike, the source gives them in different places.

Key:
Type in all cases: cell-based
[1] = test system: breast cancer cells (MDA-MB-231); assay: In vitro potency (CellTiter-Glo, 96 h), MDA-MB-231; conditions: Homo sapiens, MDA-MB-231, 96 h, CPT free drugs, breast cancer cells MDA-MB-231, 96 h, CellTiter-Glo
Method: (§1) In vitro potency was assessed on multiple cancer cell lines. All cell lines were authenticated by STR profiling at IDEXX Bioresearch and cultured for no more than 2 months after resuscitation. Cells cultured in log-phase growth were seeded for 24 hours in 96-well plates containing […] RPMI 1640 supplemented with 20% FBS. Serial dilutions of antibody-drug conjugates in cell culture media were prepared at 4× working concentrations, and 50 μL of each dilution was added to the 96-well plates. Following addition of test articles, cells were incubated with test articles for 4 days at 37 0° C. After 96 hours, growth inhibition was assessed by CellTiterGlo® (Promega, Madison, WI) and luminescence was measured on a plate reader.
(§2) In Table 7, IC50 values for ADCs are given in ng/mL. Cell viability was determined by CellTiter-Glo staining after 96 h exposure to ADC. ND=Not Determined. Ag2 is an antibody targeting a ubiquitous and readily internalizable antigen. The cancer cell lines tested are renal carcinoma cells (786-0), melanoma cells (A2058), pancreatic cancer cells (BxPC3), non-small-cell lung cancer cells (Calu1), anaplastic large cell lymphoma cells (DEL, DELBVR, Karpas299), Hodgkin's lymphoma cells (L540cy), (Ls174T), breast cancer cells (MDA-MB-231), acute myeloid leukemia cells (MOLM-13), and B-lymphocyte cancer cells (SU-DHL4).
as §1, with “FBS.” for “FBS. Serial dilutions of antibody-drug conjugates in cell culture media were prepared at 4× working concentrations, and 50 μL of each dilution was added to the 96-well plates.”
(§3) Cell viability was determined by CellTiter-Glo staining after 96 h exposure to the compound. ND=Not Determined. The cancer cell lines tested are renal carcinoma cells (786-0), melanoma cells (A2058), pancreatic cancer cells (BxPC3), non-small-cell lung cancer cells (Calu1), anaplastic large cell lymphoma cells (DEL, DELBVR, Karpas299), Hodgkin's lymphoma cells (L540cy), (Ls 174T), breast cancer cells (MDA-MB-231), acute myeloid leukemia cells (MOLM-13), B-lymphocyte cancer cells (SU-DHL4), multiple myeloma cells (MM.1R), (U266), and melanoma cells (SK-MEL-5).
as §1, with “37°” for “37 0°”
(§4) In the following Tables IC50 values for ADCs and CPT free drugs are given in ng/mL and nmol/L concentrations. Cell viability was determined by CellTiter-Glo staining after 96 h exposure to ADC or CPT free drug.
(§5) Cell viability was determined by CellTiter-Glo staining after 96 h exposure to ADC. ND=Not Determined.

[2] = test system: renal carcinoma cells (786-O); assay: In vitro potency (CellTiter-Glo, 96 h), 786-O; conditions: Homo sapiens, 786-0, 96 h, CPT free drugs, renal carcinoma cells 786-O, 96 h, CellTiter-Glo
Method: as §1, §2
as §1, with “FBS.” for “FBS. Serial dilutions of antibody-drug conjugates in cell culture media were prepared at 4× working concentrations, and 50 μL of each dilution was added to the 96-well plates.”
as §3
as §1, with “37°” for “37 0°”
as §4, §5

Ls174T cells = assay: In vitro potency (CellTiter-Glo, 96 h), Ls174T; conditions: Homo sapiens, LS174T, 96 h, CPT free drugs, Ls174T cells, 96 h, CellTiter-Glo
Method: as §1, §2
as §1, with “FBS.” for “FBS. Serial dilutions of antibody-drug conjugates in cell culture media were prepared at 4× working concentrations, and 50 μL of each dilution was added to the 96-well plates.”
as §3
as §1, with “37°” for “37 0°”
as §4, §5

[3] = test system: acute myeloid leukemia cells (MOLM-13); assay: In vitro potency (CellTiter-Glo, 96 h), MOLM-13; conditions: Homo sapiens, MOLM-13, 96 h, CPT free drugs, acute myeloid leukemia cells MOLM-13, 96 h, CellTiter-Glo
Method: as §1, §2
as §1, with “FBS.” for “FBS. Serial dilutions of antibody-drug conjugates in cell culture media were prepared at 4× working concentrations, and 50 μL of each dilution was added to the 96-well plates.”
as §3
as §1, with “37°” for “37 0°”
as §4, §5

[4] = test system: pancreatic cancer cells (BxPC3); assay: In vitro potency (CellTiter-Glo, 96 h), BxPC3; conditions: Homo sapiens, BXPC-3, 96 h, CPT free drugs, pancreatic cancer cells BxPC3, 96 h, CellTiter-Glo
Method: as §1, §2
as §1, with “FBS.” for “FBS. Serial dilutions of antibody-drug conjugates in cell culture media were prepared at 4× working concentrations, and 50 μL of each dilution was added to the 96-well plates.”
as §3
as §1, with “37°” for “37 0°”
as §4, §5

[5] = test system: anaplastic large cell lymphoma cells (Karpas299); assay: In vitro potency (CellTiter-Glo, 96 h), Karpas299; conditions: Homo sapiens, KARPAS-299, 96 h, CPT free drugs, anaplastic large cell lymphoma cells Karpas299, 96 h, CellTiter-Glo
Method: as §1, §2
as §1, with “FBS.” for “FBS. Serial dilutions of antibody-drug conjugates in cell culture media were prepared at 4× working concentrations, and 50 μL of each dilution was added to the 96-well plates.”
as §3
as §1, with “37°” for “37 0°”
as §4, §5

[6] = test system: anaplastic large cell lymphoma cells (DELBVR); assay: In vitro potency (CellTiter-Glo, 96 h), DELBVR
Method: as §1, §2
as §1, with “FBS.” for “FBS. Serial dilutions of antibody-drug conjugates in cell culture media were prepared at 4× working concentrations, and 50 μL of each dilution was added to the 96-well plates.”
as §3
as §1, with “37°” for “37 0°”
as §4, §5

[7] = test system: B-lymphocyte cancer cells (SU-DHL4); assay: In vitro potency (CellTiter-Glo, 96 h), SU-DHL-4; conditions: Homo sapiens, SU-DHL-4, 96 h, CPT free drugs, B-lymphocyte cancer cells SU-DHL4, 96 h, CellTiter-Glo
Method: as §1, §2
as §1, with “FBS.” for “FBS. Serial dilutions of antibody-drug conjugates in cell culture media were prepared at 4× working concentrations, and 50 μL of each dilution was added to the 96-well plates.”
as §3
as §1, with “37°” for “37 0°”
as §4, §5

[8] = test system: anaplastic large cell lymphoma cells (DEL); assay: In vitro potency (CellTiter-Glo, 96 h), DEL
Method: as §1, §2
as §1, with “FBS.” for “FBS. Serial dilutions of antibody-drug conjugates in cell culture media were prepared at 4× working concentrations, and 50 μL of each dilution was added to the 96-well plates.”
as §3
as §1, with “37°” for “37 0°”
as §4, §5

[9] = test system: Hodgkin's lymphoma cells (L540cy); assay: In vitro potency (CellTiter-Glo, 96 h), L540cy
Method: as §1, §2
as §1, with “FBS.” for “FBS. Serial dilutions of antibody-drug conjugates in cell culture media were prepared at 4× working concentrations, and 50 μL of each dilution was added to the 96-well plates.”
as §3
as §1, with “37°” for “37 0°”
as §4, §5

[10] = read-out: MDAMB231 IC50, Table 28
[11] = read-out: Ls174T IC50, Table 28
[12] = read-out: MOLM-13 IC50, Table 28
[13] = read-out: Karpas299 IC50, Table 28
[14] = read-out: DELBVR IC50, Table 28, CPT free drugs, anaplastic large cell lymphoma cells DELBVR, CellTiter-Glo
[15] = read-out: SU-DHL-4 IC50, Table 28
[16] = read-out: DEL IC50, Table 28, CPT free drugs, anaplastic large cell lymphoma cells DEL, CellTiter-Glo
[17] = read-out: L540cy IC50, Table 28, CPT free drugs, Hodgkin's lymphoma cells L540cy, CellTiter-Glo

Work on CC[C@@]1(O)C(=O)OCc2c1cc1n(c2=O)Cc2c-1nc1cc3c(cc1c2CN1CCC(N)CC1)OCO3 [Compound 8f] yielded an IC50 ([1]; read-out: MDAMB231 IC50, Table 29) of 207 nM, an IC50 ([2]; read-out: 786-O IC50, Table 29) of 267 nM and an IC50 (Ls174T cells; read-out: Ls174T IC50, Table 29) of 236 nM. It also gave an IC50 ([3]; read-out: MOLM-13 IC50, Table 29) of 32 nM, an IC50 ([4]; read-out: BxPC3 IC50, Table 29) of 166 nM and an IC50 ([5]; read-out: Karpas299 IC50, Table 29) of 110 nM. For the same compound, the IC50 ([6]; read-out: DELBVR IC50, Table 29, CPT free drugs, anaplastic large cell lymphoma cells DELBVR, CellTiter-Glo) was 30 nM, the IC50 ([7]; read-out: SU-DHL-4 IC50, Table 29) was 32 nM and the IC50 ([8]; read-out: DEL IC50, Table 29, CPT free drugs, anaplastic large cell lymphoma cells DEL, CellTiter-Glo) was 14 nM. It also gave an IC50 ([9]; read-out: L540cy IC50, Table 29, CPT free drugs, Hodgkin's lymphoma cells L540cy, CellTiter-Glo) of 84 nM.
In the case of CC[C@@]1(O)C(=O)OCc2c1cc1n(c2=O)Cc2c-1nc1cc3c(cc1c2CNC(C)=O)CCO3 [Compound 12], the IC50 [1, 10] is reported as 27 nM, the IC50 ([2]; read-out: 786-O IC50, Table 28) is reported as 13 nM and the IC50 (Ls174T cells; [11]) is reported as 19 nM. It also gave an IC50 [3, 12] of 5 nM, an IC50 ([4]; read-out: BxPC3 IC50, Table 28) of 12 nM and an IC50 [5, 13] of 24 nM. For the same compound, the IC50 [6, 14] was 1 nM, the IC50 [7, 15] was 1 nM and the IC50 [8, 16] was 1 nM. The IC50 [9, 17] was 5 nM.
In the case of CC[C@@]1(O)C(=O)OCc2c1cc1n(c2=O)Cc2c-1nc1cc(F)c(C)c(Cl)c1c2CNC(C)=O [Compound 12a], the IC50 [1, 10] is reported as 2 nM, the IC50 ([2]; read-out: 786-O IC50, Table 28) is reported as 1 nM and the IC50 (Ls174T cells; [11]) is reported as 7 nM. It also gave an IC50 [3, 12] of 1 nM, an IC50 ([4]; read-out: BxPC3 IC50, Table 28) of 2 nM and an IC50 [5, 13] of 1 nM. It also gave an IC50 [6, 14] of 0.2 nM, an IC50 [7, 15] of 0.4 nM and an IC50 [8, 16] of 0.2 nM. It also gave an IC50 [9, 17] of 0.4 nM.
For CC[C@@]1(O)C(=O)OCc2c1cc1n(c2=O)Cc2c-1nc1cc3c(cc1c2CNC(=O)CN)CCO3 [Compound 13], the IC50 [1, 10] was 177 nM, the IC50 ([2]; read-out: 786-O IC50, Table 28) was 139 nM and the IC50 (Ls174T cells; [11]) was 195 nM. It also gave an IC50 [3, 12] of 88 nM, an IC50 ([4]; read-out: BxPC3 IC50, Table 28) of 94 nM and an IC50 [5, 13] of 126 nM. For the same compound, the IC50 [6, 14] was 21 nM, the IC50 [7, 15] was 18 nM and the IC50 [8, 16] was 8 nM. The IC50 [9, 17] was 45 nM.
In the case of CC[C@@]1(O)C(=O)OCc2c1cc1n(c2=O)Cc2c-1nc1cc(F)c(C)c(Cl)c1c2CNC(=O)CN [Compound 13a], the IC50 [1, 10] is reported as 5 nM, the IC50 ([2]; read-out: 786-O IC50, Table 28) is reported as 6 nM and the IC50 (Ls174T cells; [11]) is reported as 44 nM. It also gave an IC50 [3, 12] of 2 nM, an IC50 ([4]; read-out: BxPC3 IC50, Table 28) of 5 nM and an IC50 [5, 13] of 1 nM. The IC50 [6, 14] was 1 nM, the IC50 [7, 15] was 1 nM and the IC50 [8, 16] was 0.3 nM. For the same compound, the IC50 [9, 17] was 1 nM.
